Entries after “also recorded” stand apart in the source; their conditions may differ.
What was measured:
endogenous ABCG2 = target: T1, endogenous ABCG2 (Sus scrofa, UniProt Q8MIB3); assay: Urate accumulation in native LLC-PK1 renal proximal tubule cells; assay type: cell-based, porcine; details: 5 μM FTC; 120 min; polarized LLC-PK1 cells; 500 μM cold urate and 25 μM hot urate
T1 construct: endogenous in cells; host or cells: LLC-PK1 porcine renal epithelial cells
T1 sequence (Q8MIB3 1-656): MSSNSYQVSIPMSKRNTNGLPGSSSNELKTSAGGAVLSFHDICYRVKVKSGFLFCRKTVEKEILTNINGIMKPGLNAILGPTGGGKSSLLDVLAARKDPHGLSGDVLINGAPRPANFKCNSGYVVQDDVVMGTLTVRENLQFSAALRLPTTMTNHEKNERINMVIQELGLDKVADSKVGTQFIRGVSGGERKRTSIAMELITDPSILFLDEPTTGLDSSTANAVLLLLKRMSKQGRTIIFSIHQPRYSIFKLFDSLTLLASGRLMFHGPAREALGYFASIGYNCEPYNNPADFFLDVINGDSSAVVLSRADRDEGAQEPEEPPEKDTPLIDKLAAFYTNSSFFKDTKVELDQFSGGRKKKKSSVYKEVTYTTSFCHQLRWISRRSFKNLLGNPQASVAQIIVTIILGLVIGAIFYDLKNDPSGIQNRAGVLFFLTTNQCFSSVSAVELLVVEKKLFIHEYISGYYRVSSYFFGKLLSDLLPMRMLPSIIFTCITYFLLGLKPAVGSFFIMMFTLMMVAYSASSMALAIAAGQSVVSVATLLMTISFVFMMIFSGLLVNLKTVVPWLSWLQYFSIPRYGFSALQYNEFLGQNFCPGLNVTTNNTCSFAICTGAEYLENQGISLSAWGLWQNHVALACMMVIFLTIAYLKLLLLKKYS
Protocol: LLC-PK1 porcine renal epithelial cells were cultured in Dulbecco's Modified Eagle medium (DMEM) supplemented with 10% FBS. LLC-PK1 cells were seeded at a high density into a 6-well plate and accumulation experiments were performed after the cells polarized. The cells were incubated in DMEM containing 500 μM cold urate and 25 μM hot urate with or without 5 μM FTC (US Biologicals); the incubation lasted 120 min. The cells were then washed four times with ice-cold DMEM and lysed with 500 μL of 1M NaOH. The lysate was collected and placed in a scintillation tubule along with 5 mL scintillation fluid and counted.

human ABCG2 = human ABCG2 (Homo sapiens, UniProt Q9UNQ0); details: 5 μM FTC; oocytes injected with ABCG2 WT mRNA; C-14 urate
Chain of human ABCG2 (Q9UNQ0 whole entry): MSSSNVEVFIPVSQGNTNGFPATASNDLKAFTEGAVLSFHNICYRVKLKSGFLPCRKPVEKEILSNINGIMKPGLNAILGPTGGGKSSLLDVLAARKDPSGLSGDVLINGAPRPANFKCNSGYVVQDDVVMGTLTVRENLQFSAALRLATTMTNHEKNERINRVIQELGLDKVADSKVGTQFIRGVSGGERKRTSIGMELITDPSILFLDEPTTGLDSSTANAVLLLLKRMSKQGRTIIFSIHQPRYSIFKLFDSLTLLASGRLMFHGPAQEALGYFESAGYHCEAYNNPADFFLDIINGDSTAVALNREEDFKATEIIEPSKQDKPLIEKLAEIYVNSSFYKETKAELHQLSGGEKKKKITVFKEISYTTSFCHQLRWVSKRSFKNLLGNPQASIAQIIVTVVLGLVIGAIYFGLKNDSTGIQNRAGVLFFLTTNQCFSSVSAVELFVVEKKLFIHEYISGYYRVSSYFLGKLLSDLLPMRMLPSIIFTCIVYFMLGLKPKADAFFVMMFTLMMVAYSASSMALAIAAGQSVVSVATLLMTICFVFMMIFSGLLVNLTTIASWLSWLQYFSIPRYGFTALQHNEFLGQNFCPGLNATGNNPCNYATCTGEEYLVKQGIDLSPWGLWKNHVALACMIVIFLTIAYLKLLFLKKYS
Protocol: Oocytes were removed from female pigmented Xenopus laevis (Xenopus 1 Inc.) and de-folliculated using collagenase A (Roche) in Ca^2+-free OR-2 ringer solution. Stage V-VI oocytes were selected and injected (Nanoinject II, Drummond Scientific) with 50 nL of either mRNA or H2O (as a control). All experiments were performed on the fourth day after injection. Oocytes after injection were cultured in a modified L-15 media (OR-3) and kept at 15-20° C. mRNA was prepared using the SP6 mMessage mMachine (Ambion Inc.) according to the manufactures protocol.
Radiolabeled C-14 uric acid (American Radio-labeled Chemicals) was dissolved in a stock solution of 2 mM NaOH with a final urate concentration of 2 mM (either 2 mM hot-radio labeled urate or 1 mM hot and 1 mM cold urate). For oocyte transport experiments, the radio labeled C-14 urate was included at various concentrations in ND96 ringers solution (in mM: 96 NaCl, 2 KCl, 2 MgCl2, 5 Hepes, 1.8 CaCl2, pH 7.5, and 5 mM glucose for overnight incubation experiments).
For accumulation studies, oocytes were incubated either for 1 or 2 h at room temperature in 50 μM C-14 urate or overnight in 500 μM C-14 urate at 15° C. After incubation the oocytes were washed in ice-cold ND96 solution 3-5 times to remove any superficial, residual C-14 urate from the oocytes. Oocytes were then pooled for scintillation counting. […]

COc1ccc2c3c([nH]c2c1)[C@H](C=C(C)C)N1C(=O)[C@@H]2CCCN2C(=O)[C@@H]1C3 [FTC, fumitremorgin C]
urate export / intracellular urate accumulation compared with non-treated control cells (endogenous ABCG2): inhibits urate export; also recorded: significantly higher intracellular urate accumulation | reduced urate accumulation in ABCG2-expressing oocytes in the presence of inhibitor (human ABCG2): absent

From patent US8722338B2, “Modulation of ABCG2-mediated urate transport to treat hyperuricemia and gout” (The Johns Hopkins University, priority 2009, dated 2014)
